PMC6364417, “Kinase inhibitor library screening identifies synergistic drug combinations effective in sensitive and resistant melanoma cells” (Journal of Experimental & Clinical Cancer Research : CR, 2019)

Experiments:
Experiment in all cases: Kinase inhibitor library screening, PrestoBlue cell viability, 1 or 10 μM, 72 h
A375 cells (parental) = details: A375 Parental
501Mel cells (parental) = details: 501Mel Parental
In short: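 Two concentrations of every kinase inhibitor were tested on each melanoma line and its resistant counterparts, and cell survival was quantified by PrestoBlue against untreated wells.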

[1] = system: IGR37-XP cells (Vemurafenib-resistant); details: IGR37 XP
[2] = system: 501Mel-GP cells (Dabrafenib-resistant); details: 501Mel GP
[3] = system: 501Mel-XP cells (Vemurafenib-resistant); details: 501Mel XP
IGR37 cells (parental) = details: IGR37 Parental
[4] = system: IGR37-GP cells (Dabrafenib-resistant); details: IGR37 GP
[5] = system: A375-XP cells (Vemurafenib-resistant); details: A375 XP
[6] = system: A375-GP cells (Dabrafenib-resistant); details: A375 GP

CNC(=O)c1cc(Oc2ccc(NC(=O)Nc3ccc(Cl)c(C(F)(F)F)c3)cc2)ccn1 [Sorafenib (Nexavar)]
cell viability (kinase inhibitor library screening) (A375 cells (parental); 10μΜ, in %): 44.5
cell viability (kinase inhibitor library screening) (501Mel cells (parental); 1μΜ, in %): 97.8
cell viability (kinase inhibitor library screening) (501Mel cells (parental); 10μΜ, in %): 53.0
cell viability (kinase inhibitor library screening) ([1]; 1μΜ, in %): 106.1
cell viability (kinase inhibitor library screening) ([1]; 10μΜ, in %): 16.7
cell viability (kinase inhibitor library screening) ([2]; 1μΜ, in %): 104.7
cell viability (kinase inhibitor library screening) ([3]; 1μΜ, in %): 96.9
cell viability (kinase inhibitor library screening) ([3]; 10μΜ, in %): 23.2
cell viability (kinase inhibitor library screening) (IGR37 cells (parental); 1μΜ, in %): 96.8
cell viability (kinase inhibitor library screening) (IGR37 cells (parental); 10μΜ, in %): 60.6
cell viability (kinase inhibitor library screening) ([4]; 1μΜ, in %): 102.7
cell viability (kinase inhibitor library screening) ([4]; 10μΜ, in %): 41.3
cell viability (kinase inhibitor library screening) ([5]; 1μΜ, in %): 95.0
cell viability (kinase inhibitor library screening) ([5]; 10μΜ, in %): 16.4
cell viability (kinase inhibitor library screening) ([6]; 1μΜ, in %): 80.9
cell viability (kinase inhibitor library screening) ([6]; 10μΜ, in %): 22.0

CN1CCN(c2nc(C3=C(c4c[nH]c5ccccc45)C(=O)NC3=O)c3ccccc3n2)CC1 [Sotrastaurin (AEB071)]
Cell viability in kinase inhibitor library screening, A375 Parental, 1μΜ (A375 cells (parental); 1μΜ, 72 h): 108.3
Cell viability in kinase inhibitor library screening, 501Mel Parental, 10μΜ (501Mel cells (parental); 10μΜ, 72 h, in %): 95.7
Cell viability in kinase inhibitor library screening, IGR37 XP, 10μΜ ([1]; 10μΜ, 72 h): 78.1%
Cell viability in kinase inhibitor library screening, 501Mel GP, 1μΜ ([2]; 1μΜ, 72 h, in %): 105.7
Cell viability in kinase inhibitor library screening, 501Mel GP, 10μΜ ([2]; 10μΜ, 72 h, in %): 91.8
Cell viability in kinase inhibitor library screening, 501Mel XP, 1μΜ ([3]; 1μΜ, 72 h, in %): 96.4
Cell viability in kinase inhibitor library screening, 501Mel XP, 10μΜ ([3]; 10μΜ, 72 h, in %): 77.9
Cell viability in kinase inhibitor library screening, IGR37 Parental, 1μΜ (IGR37 cells (parental); 1μΜ, 72 h, in %): 108.5
Cell viability in kinase inhibitor library screening, IGR37 Parental, 10μΜ (IGR37 cells (parental); 10μΜ, 72 h, in %): 95.3
Cell viability in kinase inhibitor library screening, IGR37 GP, 10μΜ ([4]; 10μΜ, 72 h): 89.1%
Cell viability in kinase inhibitor library screening, IGR37 GP, 1μΜ ([4]; 1μΜ, 72 h, in %): 96.8
Cell viability in kinase inhibitor library screening, A375 XP, 1μΜ ([5]; 1μΜ, 72 h): 102.8
Cell viability in kinase inhibitor library screening, A375 XP, 10μΜ ([5]; 10μΜ, 72 h): 96.9
Cell viability in kinase inhibitor library screening, A375 GP, 10μΜ ([6]; 10μΜ, 72 h): 88.5

CCN(CC)CCNC(=O)c1c(C)[nH]c(/C=C2\C(=O)Nc3ccc(F)cc32)c1C.O=C(O)C[C@H](O)C(=O)O [Sunitinib Malate (Sutent)]
cell viability (kinase inhibitor library screening) (A375 cells (parental); 1μΜ, in %): 104.0
cell viability (kinase inhibitor library screening) (A375 cells (parental); 10μΜ, in %): 67.2
cell viability (kinase inhibitor library screening) (501Mel cells (parental); 1μΜ, in %): 99.9
cell viability (kinase inhibitor library screening) (501Mel cells (parental); 10μΜ, in %): 0.237
cell viability (kinase inhibitor library screening) ([1]; 1μΜ, in %): 100.5
cell viability (kinase inhibitor library screening) ([1]; 10μΜ, in %): 1.2
cell viability (kinase inhibitor library screening) ([2]; 10μΜ, in %): 1.4
cell viability (kinase inhibitor library screening) ([3]; 1μΜ, in %): 92.7
cell viability (kinase inhibitor library screening) ([3]; 10μΜ, in %): -0.452
cell viability (kinase inhibitor library screening) (IGR37 cells (parental); 1μΜ, in %): 97.5
cell viability (kinase inhibitor library screening) (IGR37 cells (parental); 10μΜ, in %): 68.0
cell viability (kinase inhibitor library screening) ([4]; 1μΜ, in %): 87.4
cell viability (kinase inhibitor library screening) ([4]; 10μΜ, in %): 7.9
cell viability (kinase inhibitor library screening) ([5]; 10μΜ, in %): 68.1
cell viability (kinase inhibitor library screening) ([6]; 10μΜ, in %): 72.3

COc1cc(N2CCC(N3CCN(C)CC3)CC2)ccc1Nc1ncc(Cl)c(Nc2ccccc2S(=O)(=O)C(C)C)n1 [TAE684 (NVP-TAE684)]
cell viability (kinase inhibitor library screening) (A375 cells (parental); 10μΜ, 72 h): 8.8%
cell viability (kinase inhibitor library screening) (A375 cells (parental); 1μΜ, 72 h): 76.3%
cell viability (kinase inhibitor library screening) (501Mel cells (parental); 1μΜ, 72 h): 103.2%
cell viability (kinase inhibitor library screening) (501Mel cells (parental); 10μΜ, 72 h): 0.331%
cell viability (kinase inhibitor library screening) ([1]; 1μΜ, 72 h): 67.8%
cell viability (kinase inhibitor library screening) ([1]; 10μΜ, 72 h): 1.0%
cell viability (kinase inhibitor library screening) ([2]; 1μΜ, 72 h): 112.8%
cell viability (kinase inhibitor library screening) ([2]; 10μΜ, 72 h): -0.0599%
cell viability (kinase inhibitor library screening) ([3]; 10μΜ, 72 h): -0.231%
cell viability (kinase inhibitor library screening) (IGR37 cells (parental); 1μΜ, 72 h): 99.2%
cell viability (kinase inhibitor library screening) (IGR37 cells (parental); 10μΜ, 72 h): 4.4%
cell viability (kinase inhibitor library screening) ([4]; 1μΜ, 72 h): 84.1%
cell viability (kinase inhibitor library screening) ([4]; 10μΜ, 72 h): 1.7%
cell viability (kinase inhibitor library screening) ([5]; 1μΜ, 72 h): 72.8%
cell viability (kinase inhibitor library screening) ([5]; 10μΜ, 72 h): 13.8%
cell viability (kinase inhibitor library screening) ([6]; 1μΜ, 72 h): 61.5%
cell viability (kinase inhibitor library screening) ([6]; 10μΜ, 72 h): 8.3%
